Data on 32 compounds can be found in patent US8088925B2, “Heteroaryl-carboxylic acid (sulfamoyl alkyl) amide-derivatives as factor Xa inhibitors” (priority 2005, dated 2012).

For the test, the target named is T1, human factor Xa (Homo sapiens, UniProt P00742).
T1 construct: human factor Xa; purchased Enzyme Research Laboratories, Inc; South Bend, Ind
Nature of the test: Factor Xa assay (chromogenic, purified enzyme). In kind it is biochemical. The note with it: inhibition constant for factor Xa; chromogenic substrate S-2765 140 μM, enzyme 0.5 nM, 25° C.; Ki=IC50/{1+(substrate concentration/Km)}; read-out: Ki (FXa). The procedure:
Purified enzymes were used in chromogenic assays.
The assay was performed by pre-incubating the compound of formula I or Ia plus enzyme for 10 min. Then the assay was initiated by adding substrate to obtain a final volume of 100 μl. The initial velocity of chromogenic substrate hydrolysis was measured by the change in absorbance at 405 nm using a Bio-tek Instruments kinetic plate reader (Ceres UV900HDi) at 25° C. during the linear portion of the time course (usually 1.5 min after addition of substrate).

T1 sequence (P00742 235-488 limits assumed): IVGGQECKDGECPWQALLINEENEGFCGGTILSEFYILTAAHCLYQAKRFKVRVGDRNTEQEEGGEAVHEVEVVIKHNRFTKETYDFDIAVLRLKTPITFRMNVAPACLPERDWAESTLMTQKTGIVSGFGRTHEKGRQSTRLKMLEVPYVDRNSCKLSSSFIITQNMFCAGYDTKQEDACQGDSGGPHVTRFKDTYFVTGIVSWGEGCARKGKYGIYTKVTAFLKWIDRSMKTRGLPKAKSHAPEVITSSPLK
T1 sequence (P00742 41-179 partner limits assumed): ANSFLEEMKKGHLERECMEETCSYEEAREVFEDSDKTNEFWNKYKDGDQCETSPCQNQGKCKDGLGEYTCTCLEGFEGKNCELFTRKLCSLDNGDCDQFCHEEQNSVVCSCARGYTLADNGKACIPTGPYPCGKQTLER

As to `CC(C)N1CCC(NS(=O)(=O)CCNC(=O)c2ccc(Cl)s2)CC1` [Example 1, 5-Chloro-thiophene-2-carboxylic acid [2-(1-isopropyl-piperidin-4-ylsulfamoyl)-ethyl]-amide], the Ki amounted to 0.01 µM. `CCCNC(=O)N(C1CCN(C(C)C)CC1)S(=O)(=O)CCNC(=O)c1ccc(Cl)s1` [Example 24, 5-Chloro-thiophene-2-carboxylic acid {2-[(1-isopropyl-piperidin-4-yl)-propylaminocarbonyl-sulfamoyl]-ethyl}-amide]: the inhibition constant (Ki) amounted to 0.004 µM.

Take `Cc1ccc(C(=O)NCCS(=O)(=O)NC2CCN(C(C)C)CC2)s1` [Example 10, 5-Methyl-thiophene-2-carboxylic acid [2-(1-isopropyl-piperidin-4-ylsulfamoyl)-ethyl]-amide]: the Ki amounted to 0.259 µM. As to `CC(C)N1CCC(N(Cc2nccs2)S(=O)(=O)CCNC(=O)c2ccc(Cl)s2)CC1` [Example 23, 5-Chloro-thiophene-2-carboxylic acid {2-[(1-isopropyl-piperidin-4-yl)-thiazol-2-ylmethyl-sulfamoyl]-ethyl}-amide], the Ki was found to be 0.006 µM.

As for `CC(C)N1CCC(N(CC(F)(F)F)S(=O)(=O)CCNC(=O)c2ccc(Cl)s2)CC1` [Example 4, 5-Chloro-thiophene-2-carboxylic acid {2-[(1-isopropyl-piperidin-4-yl)-(2,2,2-trifluoro-ethyl)-sulfamoyl]-ethyl}-amide], the inhibition constant Ki came out at 0.015 µM. For `CC(C)N1CCC(NS(=O)(=O)CCNC(=O)c2cccc(Cl)c2)CC1` [Example 14, 3-Chloro-N-[2-(1-isopropyl-piperidin-4-ylsulfamoyl)-ethyl]-benzamide], the inhibitory constant (Ki) came to 19.6 µM. For the compound `O=C(NCCS(=O)(=O)NN1CCN(Cc2ccccc2)CC1)c1ccc(Cl)s1` [Example 8, 5-Chloro-thiophene-2-carboxylic acid [2-(4-benzyl-piperazin-1-ylsulfamoyl)-ethyl]-amide], the inhibition constant (Ki) worked out at 1.1 µM. For `COCCN(C1CCN(C(C)C)CC1)S(=O)(=O)CCNC(=O)c1ccc(Cl)s1` [Example 15, 5-Chloro-thiophene-2-carboxylic acid {2-[(1-isopropyl-piperidin-4-yl)-(2-methoxy-ethyl)-sulfamoyl]-ethyl}-amide], the Ki turned out to be 0.005 µM.

In the case of `O=C(NCCS(=O)(=O)NC1CCN(c2ccncc2)CC1)c1ccc(Cl)s1` [Example 5, 5-Chloro-thiophene-2-carboxylic acid [2-(3,4,5,6-tetrahydro-2H-[1,4′]bipyridinyl-4-ylsulfamoyl)-ethyl]-amide], the inhibition constant Ki was found to be 0.066 µM. Turning to `CC(C)N1CCC(NS(=O)(=O)CCCNC(=O)c2ccc(Cl)s2)CC1` [Example 29, 5-Chloro-thiophene-2-carboxylic acid [3-(1-isopropyl-piperidin-4-ylsulfamoyl)-propyl]-amide], the inhibition constant Ki was found to be 0.399 µM. As for `CC(C)N1CCC(NS(=O)(=O)CC(C)(C)NC(=O)c2ccc(Cl)s2)CC1` [Example 28, 5-Chloro-thiophene-2-carboxylic acid [2-(1-isopropyl-piperidin-4-ylsulfamoyl)-1,1-dimethyl-ethyl]-amide], the Ki amounted to 3.39 µM. With `CC(C)N1CCC(N(Cc2nnc(C3CC3)s2)S(=O)(=O)CCNC(=O)c2ccc(Cl)s2)CC1` [Example 33, 5-Chloro-thiophene-2-carboxylic acid {2-[(5-cyclopropyl-[1,3,4]thiadiazol-2-ylmethyl)-(1-isopropyl-piperidin-4-yl)-sulfamoyl]-ethyl}-amide], the Ki is 0.006 µM.

Take `CC(C)N1CCC(N(CC(=O)N2CCOCC2)S(=O)(=O)CCNC(=O)c2ccc(Cl)s2)CC1` [Example 19, 5-Chloro-thiophene-2-carboxylic acid {2-[(1-isopropyl-piperidin-4-yl)-(2-morpholin-4-yl-2-oxo-ethyl)-sulfamoyl]-ethyl}-amide]: the Ki is 0.005 µM.

In the case of `O=C(NCCS(=O)(=O)NC1CNC1)c1ccc(Cl)s1` [Example 6, 5-Chloro-thiophene-2-carboxylic acid[2-(azetidin-3-ylsulfamoyl)-ethyl]-amide], the Ki came to 20.5 µM. As for `CC(C)N1CCC(N(CC(N)=O)S(=O)(=O)CCNC(=O)c2ccc(Cl)s2)CC1` [Example 20, 5-Chloro-thiophene-2-carboxylic acid {2-[carbamoylmethyl-(1-isopropyl-piperidin-4-yl)-sulfamoyl]-ethyl}-amide], the figure is 0.003 µM; as for `Cc1cc(CN(C2CCN(C(C)C)CC2)S(=O)(=O)CCNC(=O)c2ccc(Cl)s2)no1` [Example 21, 5-Chloro-thiophene-2-carboxylic acid {2-[(1-isopropyl-piperidin-4-yl)-(5-methyl-isoxazol-3-ylmethyl)-sulfamoyl]-ethyl}-amide], 0.004 µM. For `CC(C)N1CCC(N(Cc2cc(-c3ccc(Cl)s3)on2)S(=O)(=O)CCNC(=O)c2ccc(Cl)s2)CC1` [Example 32, 5-Chloro-thiophene-2-carboxylic acid {2-[[5-(5-chloro-thiophen-2-yl)-isoxazol-3-ylmethyl]-(1-isopropyl-piperidin-4-yl)-sulfamoyl]-ethyl}-amide], the inhibitory constant (Ki) is 0.006 µM.

With `CC(C)N1CCC(N(Cc2cccnc2)S(=O)(=O)CCNC(=O)c2ccc(Cl)s2)CC1` [Example 22, 5-Chloro-thiophene-2-carboxylic acid {2-[(1-isopropyl-piperidin-4-yl)-pyridin-3-ylmethyl-sulfamoyl]-ethyl}-amide], the inhibition constant Ki turned out to be 0.008 µM. For `CC(C)N1CCC(N(CCO)S(=O)(=O)CCNC(=O)c2ccc(Cl)s2)CC1` [Example 16, 5-Chloro-thiophene-2-carboxylic acid {2-[(2-hydroxy-ethyl)-(1-isopropyl-piperidin-4-yl)-sulfamoyl]-ethyl}-amide], the Ki is 0.004 µM.

As to `CC(C)N1CCC(NS(=O)(=O)C[C@H](CO)NC(=O)c2ccc(Cl)s2)CC1` [Example 27, 5-Chloro-thiophene-2-carboxylic acid [(S)-1-hydroxymethyl-2-(1-isopropyl-piperidin-4-ylsulfamoyl)-ethyl]-amide], the Ki worked out at 1.25 µM. As for `CC(C)N1CCC(N2C(=O)CC(CNC(=O)c3ccc(Cl)s3)S2(=O)=O)CC1` (racemic) [Example 31, 5-Chloro-thiophene-2-carboxylic acid [2-(1-isopropyl-piperidin-4-yl)-1,1,3-trioxo-1λ^6-isothiazolidin-5-ylmethyl]-amide], the inhibition constant Ki worked out at 0.032 µM. In the case of `CC(C)N1CCC(N(C)S(=O)(=O)CCNC(=O)c2ccc(Cl)s2)CC1` [Example 3, 5-Chloro-thiophene-2-carboxylic acid {2-[(1-isopropyl-piperidin-4-yl)-methyl-sulfamoyl]-ethyl}-amide], the Ki worked out at 0.007 µM. Regarding `CC(C)N1CCC(NS(=O)(=O)C(C)CNC(=O)c2ccc(Cl)s2)CC1` (racemic) [Example 26, 5-Chloro-thiophene-2-carboxylic acid [2-(1-isopropyl-piperidin-4-ylsulfamoyl)-propyl]-amide], the inhibition constant (Ki) is 0.013 µM. As for `CC(C)N1CCC(NS(=O)(=O)CCNC(=O)c2ccc(Br)o2)CC1` [Example 11, 5-Bromo-furan-2-carboxylic acid [2-(1-isopropyl-piperidin-4-ylsulfamoyl)-ethyl]-amide], the figure is 3.15 µM; as for `CC(C)N1CC(NS(=O)(=O)CCNC(=O)c2ccc(Cl)s2)C1` [Example 7, 5-Chloro-thiophene-2-carboxylic acid [2-(1-isopropyl-azetidin-3-ylsulfamoyl)-ethyl]-amide], 7.25 µM. Regarding `CC(C)N1CCC(N(CC(=O)N(C)C)S(=O)(=O)CCNC(=O)c2ccc(Cl)s2)CC1` [Example 18, 5-Chloro-thiophene-2-carboxylic acid {2-[dimethylcarbamoylmethyl-(1-isopropyl-piperidin-4-yl)-sulfamoyl]-ethyl}-amide], the Ki was 0.005 µM. Regarding `O=C(NCCS(=O)(=O)NC1CCN(C2CC2)CC1)c1ccc(Cl)s1` [Example 2, 5-Chloro-thiophene-2-carboxylic acid [2-(1-cyclopropyl-piperidin-4-ylsulfamoyl)-ethyl]-amide], the Ki was determined as 0.167 µM. Regarding `CC(=O)N(C1CCN(C(C)C)CC1)S(=O)(=O)CCNC(=O)c1ccc(Cl)s1` [Example 25, 5-Chloro-thiophene-2-carboxylic acid {2-[acetyl-(1-isopropyl-piperidin-4-yl)-sulfamoyl]-ethyl}-amide], the Ki came out at 0.003 µM. `CC(C)N1CCC(NS(=O)(=O)CCNC(=O)c2ccc(Cl)cc2)CC1` [Example 12, 4-Chloro-N-[2-(1-isopropyl-piperidin-4-ylsulfamoyl)-ethyl]-benzamide]: the Ki amounted to 0.572 µM. For `CC(C)N1CCC(NS(=O)(=O)CCNC(=O)c2ccc(Br)s2)CC1` [Example 9, 5-Bromo-thiophene-2-carboxylic acid[2-(1-isopropyl-piperidin-4-ylsulfamoyl)-ethyl]-amide] the value was 0.006 µM; for `CC(C)N1CCC(N(CCCO)S(=O)(=O)CCNC(=O)c2ccc(Cl)s2)CC1` [Example 17, 5-Chloro-thiophene-2-carboxylic acid {2-[(3-hydroxy-propyl)-(1-isopropyl-piperidin-4-yl)-sulfamoyl]-ethyl}-amide], 0.004 µM. For `CC(C)N1CCC(NS(=O)(=O)CCNC(=O)c2ccc(Cl)cn2)CC1` [Example 13, 5-Chloro-pyridine-2-carboxylic acid [2-(1-isopropyl-piperidin-4-ylsulfamoyl)-ethyl]-amide] the value was 4.47 µM.

Usually Ki stands for a measure of affinity in units of concentration, obtained from inhibition or displacement.
